These results are taken from patent US12415834B2, “GhR-binding peptide and composition comprising same” (priority 2021, dated 2025).

Starred links: 1 amine or outer side, 2 acyl side, 3 side chain; linkers in the order of their positions; H or OH if unused. Positions of bridges follow the written chain, without caps; N, C: chain ends. Non-standard residues stand in square brackets, D forms with d. Residues, ends and D or L forms follow the SMILES beside them. *: point of attachment. X15 = NC(=O)[C@H](CCCCN*)NC(=O)COCCOCCNC(=O)COCCOCCNC(=O)CC[C@H](NC(=O)CC[C@H](NC(=O)CCCCCCCCCCCCCCCC(=O)O)C(=O)O)C(=O)O; X14 = NC(=O)[C@H](CCCCN*)NC(=O)COCCOCCNC(=O)COCCOCCNC(=O)CC[C@H](NC(=O)CC[C@H](NC(=O)CCCCCCCCCCCCCCC(=O)O)C(=O)O)C(=O)O; X11 = NC(=O)[C@H](CCCCN*)NC(=O)CC[C@H](NC(=O)CC[C@H](NC(=O)CCCCCCCCCCCCCCCC(=O)O)C(=O)O)C(=O)O; X20 = CC(=O)N[C@@H](CCC(=O)N[C@@H](CCC(=O)N[C@@H](CCCCN*)C(N)=O)C(=O)O)C(=O)O; Trp(1-CH2CO) = O=C([C@H](Cc1cn(CC(=O)[*:3])c2ccccc12)N[*:1])[*:2]; Trp(5-OH) = N[C@@H](Cc1c[nH]c2ccc(O)cc12)C(=O)O; Phe(4-COOH) = N[C@@H](Cc1ccc(C(=O)O)cc1)C(=O)O; NMeK = CN[C@@H](CCCCN)C(=O)O; Aib = CC(C)(N)C(=O)O

The target of the experiment is T1, Recombinant human GhR-Fc protein (Homo sapiens, UniProt P10912).
T1 construct: purchased R&D Systems
Description: SPR binding assay (Biacore T200, single-cycle kinetics) of peptides against immobilized human GhR-Fc. The conditions noted are these: SPR, hGhR; Table 1 bicyclic peptides; KD calculated from ka and kd; read-out: KD. In outline: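 Human GhR-Fc amine-coupled to a CM5 chip at pH 4.0; running buffer HBS-EP with 1% DMSO. Peptides measured by single-cycle kinetics on Biacore T200, with solvent correction and baseline subtraction. KD calculated from fitted ka and kd.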

T1 sequence (P10912 with tags, fused parts or gaps limits assumed): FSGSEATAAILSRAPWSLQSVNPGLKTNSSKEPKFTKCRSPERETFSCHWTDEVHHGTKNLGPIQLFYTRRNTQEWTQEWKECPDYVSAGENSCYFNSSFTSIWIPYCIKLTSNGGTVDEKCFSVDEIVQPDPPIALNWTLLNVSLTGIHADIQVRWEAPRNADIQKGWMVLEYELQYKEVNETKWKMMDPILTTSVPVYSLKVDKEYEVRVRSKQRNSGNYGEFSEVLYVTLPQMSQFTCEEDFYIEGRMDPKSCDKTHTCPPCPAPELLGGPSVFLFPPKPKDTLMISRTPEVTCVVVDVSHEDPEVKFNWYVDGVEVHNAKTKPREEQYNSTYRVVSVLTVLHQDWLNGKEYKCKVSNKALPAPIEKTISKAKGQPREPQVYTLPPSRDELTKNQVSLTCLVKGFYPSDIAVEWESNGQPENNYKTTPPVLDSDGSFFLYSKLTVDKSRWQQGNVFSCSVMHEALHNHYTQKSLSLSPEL

Regarding `CC(=O)N[C@@H](CCC(=O)N[C@@H](CCC(=O)N[C@@H](CCCCNC(=O)[C@@H]1CSCC(=O)N[C@@H](Cc2ccc(C(=O)O)cc2)C(=O)N(C)[C@H]2CCCCNC(=O)Cn3cc(c4ccccc43)C[C@H](NC(=O)[C@H](CC(N)=O)NC(=O)[C@H](CO)NC(=O)[C@H](C(C)C)NC(=O)[C@H](C(C)C)NC2=O)C(=O)N[C@@H](Cc2ccc(C(=O)O)cc2)C(=O)N[C@@H](CCCCN)C(=O)N[C@@H](Cc2c[nH]c3ccc(O)cc23)C(=O)NC(C)(C)C(=O)N[C@@H](C(C)C)C(=O)N1)C(N)=O)C(=O)O)C(=O)O` [Compound 58] ({CH2CO}-[Phe(4-COOH)][NMeK]VVSN[Trp(1-CH2CO)][Phe(4-COOH)]K[Trp(5-OH)][Aib]VC-X20; lactam 2-7; thioether N-13), the equilibrium dissociation constant (Kd) was 3.51 nM.

As to `CC(C)[C@@H]1NC(=O)[C@H](C(C)C)NC(=O)[C@@H]2CCCCNC(=O)Cn3cc(c4ccccc43)C[C@H](NC(=O)[C@H](CC(N)=O)NC(=O)[C@H](CO)NC1=O)C(=O)N[C@@H](Cc1ccc(C(=O)O)cc1)C(=O)N[C@@H](CCCCN)C(=O)N[C@@H](Cc1c[nH]c3ccc(O)cc13)C(=O)NC(C)(C)C(=O)N[C@@H](C(C)C)C(=O)N[C@H](C(=O)NCCCC[C@H](NC(=O)CC[C@H](NC(=O)CC[C@H](NC(=O)CCCCCCCCCCCCCCCC(=O)O)C(=O)O)C(=O)O)C(N)=O)CSCC(=O)N[C@@H](Cc1ccc(C(=O)O)cc1)C(=O)N2C` [Compound 61] ({CH2CO}-[Phe(4-COOH)][NMeK]VVSN[Trp(1-CH2CO)][Phe(4-COOH)]K[Trp(5-OH)][Aib]VC-X11; lactam 2-7; thioether N-13), the Kd was 2.53 nM.

In the case of `CC(C)[C@@H]1NC(=O)[C@H](C(C)C)NC(=O)[C@@H]2CCCCNC(=O)Cn3cc(c4ccccc43)C[C@H](NC(=O)[C@H](CC(N)=O)NC(=O)[C@H](CO)NC1=O)C(=O)N[C@@H](Cc1ccc(C(=O)O)cc1)C(=O)N[C@@H](CCCCN)C(=O)N[C@@H](Cc1c[nH]c3ccc(O)cc13)C(=O)NC(C)(C)C(=O)N[C@@H](C(C)C)C(=O)N[C@H](C(=O)NCCCC[C@H](NC(=O)COCCOCCNC(=O)COCCOCCNC(=O)CC[C@H](NC(=O)CC[C@H](NC(=O)CCCCCCCCCCCCCCC(=O)O)C(=O)O)C(=O)O)C(N)=O)CSCC(=O)N[C@@H](Cc1ccc(C(=O)O)cc1)C(=O)N2C` [Compound 64] ({CH2CO}-[Phe(4-COOH)][NMeK]VVSN[Trp(1-CH2CO)][Phe(4-COOH)]K[Trp(5-OH)][Aib]VC-X14; lactam 2-7; thioether N-13), the equilibrium dissociation constant (Kd) was 3.61 nM.

Regarding `CC(C)[C@@H]1NC(=O)[C@H](C(C)C)NC(=O)[C@@H]2CCCCNC(=O)Cn3cc(c4ccccc43)C[C@H](NC(=O)[C@H](CC(N)=O)NC(=O)[C@H](CO)NC1=O)C(=O)N[C@@H](Cc1ccc(C(=O)O)cc1)C(=O)N[C@@H](CCCCN)C(=O)N[C@@H](Cc1c[nH]c3ccc(O)cc13)C(=O)NC(C)(C)C(=O)N[C@@H](C(C)C)C(=O)N[C@H](C(=O)NCCCC[C@H](NC(=O)COCCOCCNC(=O)COCCOCCNC(=O)CC[C@H](NC(=O)CC[C@H](NC(=O)CCCCCCCCCCCCCCCC(=O)O)C(=O)O)C(=O)O)C(N)=O)CSCC(=O)N[C@@H](Cc1ccc(C(=O)O)cc1)C(=O)N2C` [Compound 65] ({CH2CO}-[Phe(4-COOH)][NMeK]VVSN[Trp(1-CH2CO)][Phe(4-COOH)]K[Trp(5-OH)][Aib]VC-X15; lactam 2-7; thioether N-13), the Kd was 3.33 nM.
